Measured values from ChEMBL document CHEMBL1201862, “PubChem BioAssay data set” (2004).
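Five concentrations, 48 hours, 96-well plates. GI50 marks 50% less growth.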 Active and inactive are the calls of the source. Rule as the data show it: active = GI50 up to about 1.1 µM and inactive = higher.

Key:
Assay in all cases: growth of human tumour cells (NCI), 48 h
[1] = system: SK-MEL-28
[2] = system: EKVX
[3] = system: TK-10
[4] = system: DU-145
[5] = system: BT-549
[6] = system: SF-295
[7] = system: HT-29
[8] = system: MDA-MB-231
[9] = system: KM12
[10] = system: UO-31
[11] = system: RPMI-8226
[12] = system: NCI/ADR-RES
[13] = system: NCI-H226
[14] = system: SR
[15] = system: SF-539
[16] = system: SK-MEL-5
[17] = system: IGROV-1
[18] = system: HOP-62
[19] = system: UACC-62
[20] = system: SNB-19

Measured: GI50

O=C1N(Cc2ccccc2)C2CSCC2N1Cc1ccccc1 (stereo not given)
inactive: [1] 37.7 µM | [2] 21.1 µM | [3] 29.6 µM | [4] 50.9 µM | [5] 17.1 µM | [6] 37.3 µM | [7] 16.7 µM | [8] 12.1 µM | [9] 23.8 µM | [10] 24 µM | [11] 23.5 µM | [12] 24.5 µM | [13] 24.1 µM | [14] 37.2 µM | [15] 24.5 µM | [16] 15.4 µM | [17] 24.8 µM | [18] 1.85 µM | [19] 27.4 µM | [20] 63.2 µM
